The source made the active and inactive calls. The calls are words filed in the database; no cut-off is given here.
Key:
[1] = test system: Mus musculus; assay: Analgetic activity against CF-1 mouse assessed as increase in reaction time at 320 mg/kg, po by heat stimulus induced tail flick response assay; type: functional, organism-based; parameters: dose 320 mg/kg
[2] = test system: Mus musculus; assay: Analgetic activity in sc dosed CF1S mouse assessed as writhing by phenylquinone writhing test; type: functional
[3] = test system: Mus musculus; assay: Analgetic activity in po dosed CF1S mouse assessed as writhing by phenylquinone writhing test; type: functional; details: Mus musculus, CF1S, po; read-out: ED50
[4] = Mus musculus, CF1S, sc, read-out: ED50

| SMILES | ED50 [2, 4] [mg/kg] | other results |
| --- | --- | --- |
| CC1C2Cc3ccc(O)cc3C1(c1ccccc1)CCN2CCC(c1ccccc1)c1ccccc1 (stereo in doubt; 166) | – | Activity [1]: inactive |
| CC1C2Cc3ccc(O)cc3C1(c1ccccc1)CCN2CCN1CCOCC1 (stereo not drawn) | > 100 | ED50 [3]: > 100 mg/kg; Activity [1]: inactive |
| Oc1ccc2c(c1)C1(c3ccccc3)CCN(CCc3cccs3)C(C2)C1 (racemic) | – | Activity [1]: inactive |
| Cl.Oc1ccc2c(c1)C1(c3ccccc3)CCN(CCc3ccccc3)C(C2)C1 (stereo not drawn) | 7.4 | – |
| CC1C2Cc3ccc(O)cc3C1(c1ccccc1)CCN2C(=O)C12CC3CC(CC(C3)C1)C2 (stereo not drawn) | > 100 | – |
| CC1C2Cc3ccc(OC(=O)c4c(Cl)cccc4Cl)cc3C1(c1ccccc1)CCN2C (stereo not drawn) | > 100 | – |
| CC(C)=CCN1CCC2(c3ccccc3)CC1Cc1ccc(O)cc12 (racemic) | 15 | – |
| C[C@@H]1C2Cc3ccc(OS(C)(=O)=O)cc3C1(c1ccccc1)CCN2C (stereo partly drawn) | 5.3 | – |
| CCCN1CCC2(c3ccccc3)c3cc(O)ccc3CC1C2C.Cl (stereo in doubt; 173) | – | ED50 [2]: >100 mg/kg |
| CC(C)O.Cl.Oc1ccc2c(c1)C1(c3ccccc3)CCN(CC3CC3)C(C2)C1 (racemic) | 33 | ED50 [3]: 107 mg/kg |
| CC(C)=CCN1CCC2(c3ccccc3)c3cc(O)ccc3CC1C2C.Cl (stereo in doubt; 207) | 39 | – |
| CC1C2Cc3ccc(O)cc3C1(c1ccccc1)CCN2C(=O)C1CC1 (stereo not drawn) | > 100 | Activity [1]: inactive |
| Oc1ccc2c(c1)C1(c3ccccc3)CCN(CCCCc3ccccc3)C(C2)C1 (racemic) | – | ED50 [3]: > 100 mg/kg; Activity [1]: inactive |
| CC1C2Cc3ccc(O)cc3C1(c1ccccc1)CCN2CC12CC3CC(CC(C3)C1)C2.Cl (stereo not drawn) | – | ED50 [3]: > 100 mg/kg; Activity [1]: inactive |
| C#CCN1CCC2(c3ccccc3)CC1Cc1ccc(OC(=O)c3ccccc3)cc12 (racemic) | > 100 | – |
| CC1C2Cc3ccc(O)cc3C1(c1ccccc1)CCN2CCc1cccs1.Cl.O (stereo not drawn) | > 100 | ED50 [3]: > 100 mg/kg |
| Oc1ccc2c(c1)C1(c3ccccc3)CCNC(C2)C1 (stereo not drawn) | – | Activity [1]: inactive |
| CC1C2Cc3ccc(O)cc3C1(c1ccccc1)CCN2CC1CCC1.Cl (stereo in doubt; 171) | – | ED50 [2]: >100 mg/kg |
| C=C(Br)CN1CCC2(c3ccccc3)CC1Cc1ccc(O)cc12 (racemic) | > 100 | – |
| CC(C)O.CC1C2Cc3ccc(O)cc3C1(c1ccccc1)CCN2CC1CC1.Cl (stereo in doubt; 170) | 100 | – |
| CC1C2Cc3ccc(OC(=O)c4ccccc4)cc3C1(c1ccccc1)CCN2C (stereo not drawn) | 0.5 | – |

| SMILES | ED50 [2, 4] [mg/kg] | other results |
| --- | --- | --- |
| COc1ccc2c(c1)C1(c3ccccc3)CCN(C)C(C2)C1 (racemic) | 14 | – |
| C[C@@H]1C2Cc3ccc(O)cc3C1(c1ccccc1)CCN2CC(=O)O (stereo partly drawn) | > 100 | – |
| Cc1ccc(S(=O)(=O)Oc2ccc3c(c2)C2(c4ccccc4)CCN(C)C(C3)C2C)cc1.Cl (stereo not drawn) | > 100 | – |
| COc1ccc2c(c1)C1(c3ccccc3)CCN(C)C(C2)C1.Cl.O (stereo not drawn) | 16 | – |
| Cl.O=C(CCCN1CCC2(c3ccccc3)CC1Cc1ccccc12)c1ccc(F)cc1 (racemic) | – | ED50 [3]: > 150 mg/kg |
| C=CCN1CCC2(c3ccccc3)CC1Cc1ccc(O)cc12 (stereo in doubt; 143) | – | ED50 [2]: >80 mg/kg |
| Br.CC1C2Cc3ccc(O)cc3C1(c1ccccc1)CCN2CC(=O)c1ccccc1 (stereo not drawn) | > 100 | – |
| C=CCN1CCC2(c3ccccc3)CC1Cc1ccc(O)cc12 (stereo in doubt; 146) | – | ED50 [2]: >30 mg/kg |
| Br.Clc1ccc(C23CCN(CCc4ccccc4)C(Cc4ccccc42)C3)cc1 (racemic) | > 100 | Activity [1]: inactive |
| CC(C)O.Cl.Oc1ccc2c(c1)C1(c3ccccc3)CCN(CC3CC3)C(C2)C1 (stereo in doubt; 144) | – | ED50 [2]: >33 mg/kg |
| CC1C2Cc3ccc(OC(=O)c4ccc([N+](=O)[O-])cc4)cc3C1(c1ccccc1)CCN2C (stereo not drawn) | 0.6 | – |
| CCCCCCCCCCN1CCC2(c3ccccc3)c3cc(O)ccc3CC1C2C.Cl (stereo not drawn) | 70 | ED50 [3]: > 100 mg/kg; Activity [1]: inactive |
| C[C@@H]1C2Cc3ccc(O)cc3C1(c1ccccc1)CCN2C (stereo partly drawn) | 0.5 | – |
| COc1ccc2c(c1)C1(c3ccccc3)CCN(CC3CCC3)C(C2)C1.Cl.O (racemic) | – | ED50 [3]: > 100 mg/kg |
| Br.CC1C2Cc3ccc(O)cc3C1(c1ccccc1)CCN2CCC(c1ccccc1)c1ccccc1.O (stereo in doubt; 166) | > 100 | – |
| CC(C)=CCN1CCC2(c3ccccc3)c3cc(OC(=O)c4ccccc4)ccc3CC1C2C (stereo not drawn) | > 100 | – |
| CC1C2Cc3ccc(O)cc3C1(c1ccccc1)CCN2 (stereo in doubt; 112) | – | Activity [1]: inactive |
| CC1C2Cc3ccc(O)cc3C1(c1ccccc1)CCN2C (stereo not drawn) | 4.2 | – |
| C[C@@H]1C2Cc3ccc(O)cc3C1(c1ccccc1)CCN2CCC(O)(c1ccccc1)c1ccccc1 (stereo partly drawn) | > 100 | Activity [1]: inactive |
| CC(C)=CCN1CCC2(c3ccccc3)c3cc(OS(=O)(=O)c4ccc(C)cc4)ccc3CC1C2C (stereo not drawn) | > 100 | – |
| CC(C)=CCN1CCC2(c3ccccc3)c3cc(O)ccc3CC1C2C.Cl (stereo in doubt; 169) | – | ED50 [2]: 41 mg/kg |
